Test: mn = molality of the nth substance listed, in mol/kg
Settings: 298.15 K, 101.3 kPa, Liquid, Taylor dispersion method

CCC(N)C(=O)O (stereo not drawn) [(.+-.)-α-aminobutyric acid] + O
Settings	binary diffusion coefficient [m2/s]
m1 = 0.001003	8.42e-10
m1 = 0.005014	8.41e-10
m1 = 0.01003	8.39e-10
m1 = 0.02005	8.38e-10
m1 = 0.05008	8.35e-10
m1 = 0.1	8.32e-10

— the NIST ThermoML archive (doi:10.1016/j.jct.2019.03.009)
